Assay results taken from patent US10195185B2, “3-(1H-imidazo[4,5-C]pyridin-2-yl)-1H-pyrazolo[4,3-B]pyridines and therapeutic uses thereof” (Samumed, LLC, priority 2015, dated 2019).

Test system: IL-6 in human monocyte cell line (THP-1 cells)
Assay: IL-6 inhibition in LPS-stimulated THP-1 cells (HTRF)
Format: cell-based
Settings: IL-6 in LPS-stimulated THP-1 cells; for EC50: HTRF; for inhibition at 10 µM: read-out: percent inhibition in brackets beside EC50 >10 μM
Protocol: Human monocyte cell line (THP-1 cells; Catalog # TIB-202, ATCC, Manassas, Va.) were cultured in Roswell Park Memorial Institute (RPMI) 1640 Medium (Catalog #21870-100, Buffalo, N.Y.) with 1% L-glutamine, 1% HEPES, 1% Sodium Pyruvate, 2% Sodium Bicarbonate supplemented with 100 units/mL penicillin, 50 μg/mL streptomycin, 2-mercaptoethanol (0.05 mM) [basal medium] and 10% fetal bovine serum (Catalog #16140089, Life Technologies, Carlsbad, Calif.) at 37° C. and 5% CO2.
THP-1 cells were cultured in basal media with 1% FBS for 24 hours before the start of the assay. Each compound was dissolved in DMSO as a 10 mM stock and used to prepare compound source plates. Serial dilution (1:3, 10-point dose-response curves starting from 10 μM) and compound transfer was performed using the ECHO 550 (Labcyte, Sunnyvale, Calif.) into 384-well white low volume assay plates (Greiner Bio-One) with appropriate DMSO backfill for a final DMSO concentration of 0.1%. THP-1 cells were plated at 5000 cells/well in the 384-well plates and incubated at 37° C. for 2 h. 500 ng/mL of LPS was added after 2 hours and cells were incubated for another 22 hours at 37° C. Plates were spun in a centrifuge for 1 minute at […] and a mixture of anti-IL6 XL665, and anti-IL6 Cryptate diluted in reconstitution buffer (Cisbio Inc.) was added to each well. Following incubation for 3 hrs at room temperature, Homogeneous Time-Resolved Fluorescence (HTRF) was measured using the Envision (Perkin Elmer) at 665 nm and […]. The ratio of fluorescence at 665 nm to 620 nm was used as a readout for IL6 quantification. All samples were processed in duplicate. Readings were normalized to DMSO treated cells and normalized activities were utilized for EC50 calculations using the dose-response log (inhibitor) vs. response-variable slope (four parameters) nonlinear regression feature available in GraphPad Prism 5.0 (or Dotmatics). For EC50 of >10 μM, the percent inhibition at 10 μM is provided.

EC50 [µM]	SMILES	inhibition at 10 µM [%]
> 10	Cn1cc(-c2ccc3[nH]nc(-c4nc5c(-c6cc(F)cc(CNS(C)(=O)=O)c6)nccc5[nH]4)c3n2)cn1 [Compound 764, N-(3-Fluoro-5-(2-(5-(1-methyl-1H-pyrazol-4-yl)-1H-pyrazolo [4,3-b]pyridin-3-yl)-1H-imidazo[4,5-c]pyridin-4-yl)benzyl)methanesulfonamide]	0
> 10	Cn1cc(-c2ccc3[nH]nc(-c4nc5c(-c6ccc(F)cc6)nccc5[nH]4)c3n2)c(CO)n1 [Compound 1128, (4-(3-(4-(4-Fluorophenyl)-1H-imidazo[4,5-c]pyridin-2-yl)-1H-pyrazolo[4,3-b]pyridin-5-yl)-1-methyl-1H-pyrazol-3-yl)methanol]	0
> 10	CN(C)CCNc1cc(F)cc(-c2nccc3[nH]c(-c4n[nH]c5ccc(-c6cnccn6)nc45)nc23)c1 [Compound 792, N^1-(3-Fluoro-5-(2-(5-(pyrazin-2-yl)-1H-pyrazolo[4,3-b]pyridin-3-yl)-1H-imidazo[4,5-c]pyridin-4-yl)phenyl)-N^2,N^2-dimethylethane-1,2-diamine]	32.6
> 10	NC1CN(c2cncc(-c3ccc4[nH]nc(-c5nc6c(-c7ccc(Cl)s7)nccc6[nH]5)c4n3)n2)C1 [Compound 1068, 1-(6-(3-(4-(5-Chlorothiophen-2-yl)-1H-imidazo[4,5-c]pyridin-2-yl)-1H-pyrazolo[4,3-b]pyridin-5-yl)pyrazin-2-yl)azetidin-3-amine]	19.2
> 10	COc1cccc(-c2nccc3[nH]c(-c4n[nH]c5ccc(-c6cncc(OC7CCNCC7)c6)nc45)nc23)c1 [Compound 1025, 3-(4-(3-Methoxyphenyl)-1H-imidazo[4,5-c]pyridin-2-yl)-5-(5-(piperidin-4-yloxy)pyridin-3-yl)-1H-pyrazolo[4,3-b]pyridine]	26.9
0.493	COc1cccc(-c2nccc3[nH]c(-c4n[nH]c5ccc(-c6cncc(O)c6)nc45)nc23)c1 [Compound 1030, 5-(3-(4-(3-Methoxyphenyl)-1H-imidazo[4,5-c]pyridin-2-yl)-1H-pyrazolo [4,3-b]pyridin-5-yl)pyridin-3-ol]	
> 10	Cn1cc(-c2ccc3[nH]nc(-c4nc5c(N6CCCCC6)nccc5[nH]4)c3n2)c(CO)n1 [Compound 1133, (1-Methyl-4-(3-(4-(piperidin-1-yl)-1H-imidazo[4,5-c]pyridin-2-yl)-1H-pyrazolo [4,3-b]pyridin-5-yl)-1H-pyrazol-3-yl)methanol]	0
> 10	c1cc2[nH]c(-c3n[nH]c4ccc(C5CCNCC5)nc34)nc2c(-c2ccc3c(c2)OCO3)n1 [Compound 1108, 3-(4-(Benzo[d][1,3]dioxol-5-yl)-1H-imidazo[4,5-c]pyridin-2-yl)-5-(piperidin-4-yl)-1H-pyrazolo[4,3-b]pyridine]	22.8

The remaining lines, values behind:

SMILES	EC50 [µM]	inhibition at 10 µM [%]
c1cc2[nH]c(-c3n[nH]c4ccc(-c5cncc(CNCC6CCCC6)c5)nc34)nc2c(-c2ccoc2)n1 [Compound 333, 1-Cyclopentyl-N-((5-(3-(4-(furan-3-yl)-1H-imidazo[4,5-c]pyridin-2-yl)-1H-pyrazolo [4,3-b]pyridin-5-yl)pyridin-3-yl)methyl)methanamine]	> 10	32.3
CN1CCN(c2nccc3[nH]c(-c4n[nH]c5ccc(-c6cncc(NC(=O)C7CCCC7)c6)nc45)nc23)CC1 [Compound 246, N-(5-(3-(4-(4-Methylpiperazin-1-yl)-1H-imidazo[4,5-c]pyridin-2-yl)-1H-pyrazolo [4,3-b]pyridin-5-yl)pyridin-3-yl)cyclopentanecarboxamide]	> 10	37.7
O=C(Nc1cncc(-c2ccc3[nH]nc(-c4nc5c(-c6ccccc6F)nccc5[nH]4)c3n2)c1)C1CCCC1 [Compound 78, N-(5-(3-(4-(2-Fluorophenyl)-1H-imidazo[4,5-c]pyridin-2-yl)-1H-pyrazolo [4,3-b]pyridin-5-yl)pyridin-3-yl)cyclopentanecarboxamide]	> 10	29.7
Cc1ncc(-c2ccc3[nH]nc(-c4nc5c(-c6ccoc6)nccc5[nH]4)c3n2)n1C [Compound 685, 5-(1,2-Dimethyl-1H-imidazol-5-yl)-3-(4-(furan-3-yl)-1H-imidazo[4,5-c]pyridin-2-yl)-1H-pyrazolo[4,3-b]pyridine]	> 10	30.2
Cc1ccc(-c2nccc3[nH]c(-c4n[nH]c5ccc(C6=CCNCC6)nc45)nc23)s1 [Compound 730, 3-(4-(5-Methylthiophen-2-yl)-1H-imidazo[4,5-c]pyridin-2-yl)-5-(1,2,3,6-tetrahydropyridin-4-yl)-1H-pyrazolo[4,3-b]pyridine]	> 10	29.5
O=C(Cc1ccccc1)Nc1cncc(-c2ccc3[nH]nc(-c4nc5cnccc5[nH]4)c3n2)c1 [Compound 262, N-(5-(3-(1H-imidazo[4,5-c]pyridin-2-yl)-1H-pyrazolo[4,3-b]pyridin-5-yl)pyridin-3-yl)-2-phenylacetamide]	> 10	35.4
c1cc2[nH]c(-c3n[nH]c4ccc(-c5cncc(OCCN6CCCC6)c5)nc34)nc2c(-c2ccoc2)n1 [Compound 690, 3-(4-(Furan-3-yl)-1H-imidazo[4,5-c]pyridin-2-yl)-5-(5-(2-(pyrrolidin-1-yl)ethoxy)pyridin-3-yl)-1H-pyrazolo[4,3-b]pyridine]	1.46	
O=C(Nc1cncc(-c2ccc3[nH]nc(-c4nc5c(-c6ccccn6)nccc5[nH]4)c3n2)c1)c1ccccc1 [Compound 151, N-(5-(3-(4-(Pyridin-2-yl)-1H-imidazo[4,5-c]pyridin-2-yl)-1H-pyrazolo[4,3-b]pyridin-5-yl)pyridin-3-yl)benzamide]	> 10	28.9
O=C(Nc1cncc(-c2ccc3[nH]nc(-c4nc5c(-c6ccncc6)nccc5[nH]4)c3n2)c1)C1CCCCC1 [Compound 135, N-(5-(3-(4-(pyridin-4-yl)-1H-imidazo[4,5-c]pyridin-2-yl)-1H-pyrazolo[4,3-b]pyridin-5-yl)pyridin-3-yl)cyclohexanecarboxamide]	> 10	33.2
c1cc2[nH]c(-c3n[nH]c4ccc(-c5cn[nH]c5)nc34)nc2cn1 [Compound 651, 3-(1H-Imidazo[4,5-c]pyridin-2-yl)-5-(1H-pyrazol-4-yl)-1H-pyrazolo[4,3-b]pyridine]	> 10	0
CN1CCN(c2nccc3[nH]c(-c4n[nH]c5ccc(-c6cnccn6)nc45)nc23)CC1 [Compound 648, 3-(4-(4-Methylpiperazin-1-yl)-1H-imidazo[4,5-c]pyridin-2-yl)-5-(pyrazin-2-yl)-1H-pyrazolo[4,3-b]pyridine]	0.998	
Fc1ccccc1-c1nccc2[nH]c(-c3n[nH]c4ccc(-c5ccccn5)nc34)nc12 [Compound 84, 3-(4-(2-Fluorophenyl)-1H-imidazo[4,5-c]pyridin-2-yl)-5-(pyridin-2-yl)-1H-pyrazolo[4,3-b]pyridine]	> 10	27.2
Oc1cncc(-c2ccc3[nH]nc(-c4nc5cnccc5[nH]4)c3n2)c1 [Compound 661, 5-(3-(1H-Imidazo[4,5-c]pyridin-2-yl)-1H-pyrazolo[4,3-b]pyridin-5-yl) pyridin-3-ol]	> 10	31.3
c1cc2[nH]c(-c3n[nH]c4ccc(-c5cncc(OC6CCNCC6)c5)nc34)nc2cn1 [Compound 656, 3-(1H-Imidazo[4,5-c]pyridin-2-yl)-5-(5-(piperidin-4-yloxy)pyridin-3-yl)-1H-pyrazolo[4,3-b]pyridine]	> 10	41.3
COc1cncc(-c2ccc3[nH]nc(-c4nc5c(-c6ccoc6)nccc5[nH]4)c3n2)c1 [Compound 692, 3-(4-(Furan-3-yl)-1H-imidazo[4,5-c]pyridin-2-yl)-5-(5-methoxypyridin-3-yl)-1H-pyrazolo[4,3-b]pyridine]	> 10	44
Cc1ccc(-c2nccc3[nH]c(-c4n[nH]c5ccc(-c6cncc(OC7CCCCC7)c6)nc45)nc23)s1 [Compound 735, 5-(5-(Cyclohexyloxy)pyridin-3-yl)-3-(4-(5-methylthiophen-2-yl)-1H-imidazo[4,5-c]pyridin-2-yl)-1H-pyrazolo[4,3-b]pyridine]	> 10	18.8
CC(C)(C)CC(=O)Nc1cncc(-c2ccc3[nH]nc(-c4nc5c(-c6ccccc6F)nccc5[nH]4)c3n2)c1 [Compound 72, N-(5-(3-(4-(2-fluorophenyl)-1H-imidazo[4,5-c]pyridin-2-yl)-1H-pyrazolo [4,3-b]pyridin-5-yl)pyridin-3-yl)-3,3-dimethylbutanamide]	> 10	26.1
